Numbers after ± are expanded uncertainties.

Data set [1] can be described thus: Molar enthalpy of transition or fusion. The following applies: Crystal; DSC.
The conditions of data set [2]: Crystal; DTA.

Consider `O=C(O)C=Cc1ccc(O)cc1` [3-(4-hydroxyphenyl)-2-propenoic acid], for which the “Molar enthalpy of transition or fusion” value in data set [1] is 6.55 ± 0.956 kcal/mol. For the same compound, the Normal melting temperature in data set [2] worked out at 219.20 ± 1 °C.

For the origin of these results see the NIST ThermoML archive (doi:10.1016/j.jct.2013.02.013).
